Source: USRE47141E1, “Methods of treating fibrosis, cancer and vascular injuries” (EWHA University—Industry Collaboration Foundation, priority 2010, dated 2018)

The compounds below were run against ALK5 (Homo sapiens (Human), UniProt P36897) (assay: Cell-free assay for inhibition of ALK5 kinase phosphorylation). Conditions: read-out: IC50 on ALK5 kinase phosphorylation.
Format: biochemical
Protocol: ALK5 protein was expressed in Sf9 insect cells as human recombinant GST-fusion protein using the baculovirus expression system. Expressed protein was purified by affinity chromatography using GSH-agarose (Sigma-Aldrich). Kinase assay was performed in 96-well FlashPlates™ from Perkin Elmer (Boston, Mass., USA) in a 50 μL reaction volume. The reaction cocktail was pipetted in four steps in the following order: 20 μL of assay buffer (standard buffer), 5 μL of ATP solution in H2O, 5 μL of each test compounds of formula (I) in 10% DMSO, 10 μL of GSK3 (14-27) (200 ng)/10 μL of ALK5 solution (1 ng) (premixed). The reaction cocktail contained 60 mM HEPES-NaOH, pH 7.5, 3 mM MgCl2, 3 mM MnCl2, 3 Na3VO4, 1.2 mM DTT, 50 μg/mL PEG20000, 1 μM [γ-^33P]-ATP (approximately 2.5×10^5 cpm per well), 200 ng/10 μL GSK3 (14-27), and 1 ng/10 μL ALK5. The reaction cocktail was incubated at 30° C. for 60 min. The reaction was stopped with 50 μL of 2% (v/v) H3PO4, and plates were aspirated and washed two times with 200 μL 0.9% (w/v) NaCl. Assay was performed with a BeckmanCoulter Biomek 2000 robotic system. Incorporation of ^33Pi (counting of “cpm”) was determined with a microplate scintillation counter (Microbeta, Wallac).

ALK5, sequence (P36897 34-503): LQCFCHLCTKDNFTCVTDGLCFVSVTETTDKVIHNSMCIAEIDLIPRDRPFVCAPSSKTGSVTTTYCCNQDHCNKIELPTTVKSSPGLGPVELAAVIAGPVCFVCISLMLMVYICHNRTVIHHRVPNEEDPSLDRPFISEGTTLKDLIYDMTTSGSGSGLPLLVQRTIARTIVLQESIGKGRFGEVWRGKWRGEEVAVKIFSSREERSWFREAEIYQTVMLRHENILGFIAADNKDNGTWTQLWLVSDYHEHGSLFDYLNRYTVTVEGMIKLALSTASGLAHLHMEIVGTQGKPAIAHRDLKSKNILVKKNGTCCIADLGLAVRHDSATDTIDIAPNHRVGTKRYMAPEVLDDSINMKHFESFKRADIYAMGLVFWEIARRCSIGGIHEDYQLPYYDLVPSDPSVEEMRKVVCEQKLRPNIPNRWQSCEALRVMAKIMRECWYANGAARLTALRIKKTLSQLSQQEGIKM

In order of rising IC50:
1. Cc1cccc(-c2[nH]c(CNc3cccc(Cl)c3)nc2-c2ccc3ncnn3c2)n1 [Example 12, N-((4-([1,2,4]triazolo[1,5-a]pyridin-6-yl)-5-(6-methylpyridin-2-yl)-1H-imidazol-2-yl)methyl)-3-chloroaniline]  6.16 nM
2. Cc1cccc(-c2[nH]c(CNc3cc(F)cc(F)c3)nc2-c2ccc3ncnn3c2)n1 [Example 9, N-((4-([1,2,4]triazolo[1,5-a]pyridin-6-yl)-5-(6-methylpyridin-2-yl)-1H-imidazol-2-yl)methyl)-3,5-difluoroaniline]  6.39 nM
3. CSc1cccc(NCc2nc(-c3ccc4ncnn4c3)c(-c3cccc(C)n3)[nH]2)c1 [Example 55, N-((4-([1,2,4]triazolo[1,5-a]pyridin-6-yl)-5-(6-methylpyridin-2-yl)-1H-imidazol-2-yl)methyl)-3-(methylthio)aniline]  6.7 nM
4. Cc1cccc(-c2[nH]c(CNc3ccc(Cl)c(Cl)c3)nc2-c2ccc3ncnn3c2)n1 [Example 16, N-((4-([1,2,4]triazolo[1,5-a]pyridin-6-yl)-5-(6-methylpyridin-2-yl)-1H-imidazol-2-yl)methyl)-3,4-dichloroaniline]  7.54 nM
5. CCc1cccc(NCc2nc(-c3ccc4ncnn4c3)c(-c3cccc(C)n3)[nH]2)c1 [Example 31, N-((4-([1,2,4]triazolo[1,5-a]pyridin-6-yl)-5-(6-methylpyridin-2-yl)-1H-imidazol-2-yl)methyl)-3-ethylaniline]  8.01 nM
6. Cc1cccc(-c2[nH]c(CNc3cccc(C(N)=O)c3)nc2-c2ccc3ncnn3c2)n1 [Example 66, 3-((4-([1,2,4]triazolo[1,5-a]pyridin-6-yl)-5-(6-methylpyridin-2-yl)-1H-imidazol-2-yl)methylamino)benzamide]  9.14 nM
7. CCc1cccc(-c2[nH]c(CNc3cccc(C#N)c3)nc2-c2ccc3ncnn3c2)n1 [Example 138, 3-((4-([1,2,4]triazolo[1,5-a]pyridin-6-yl)-5-(6-ethylpyridin-2-yl)-1H-imidazol-2-yl)methylamino)benzonitrile]  9.4 nM
8. Cc1cccc(-c2[nH]c(CNc3cccc(F)c3)nc2-c2ccc3ncnn3c2)n1 [Example 5, N-((4-([1,2,4]triazolo[1,5-a]pyridin-6-yl)-5-(6-methylpyridin-2-yl)-1H-imidazol-2-yl)methyl)-3-fluoroaniline]  9.41 nM
9. Cc1cccc(-c2[nH]c(CNc3ccc(F)c(F)c3)nc2-c2ccc3ncnn3c2)n1 [Example 8, N-((4-([1,2,4]triazolo[1,5-a]pyridin-6-yl)-5-(6-methylpyridin-2-yl)-1H-imidazol-2-yl)methyl)-3,4-difluoroaniline]  9.84 nM
10. CSc1ccccc1NCc1nc(-c2ccc3ncnn3c2)c(-c2cccc(C)n2)[nH]1 [Example 54, N-((4-([1,2,4]triazolo[1,5-a]pyridin-6-yl)-5-(6-methylpyridin-2-yl)-1H-imidazol-2-yl)methyl)-2-(methylthio)aniline]  9.93 nM
11. CCc1ccccc1NCc1nc(-c2ccc3ncnn3c2)c(-c2cccc(C)n2)[nH]1 [Example 30, N-((4-([1,2,4]triazolo[1,5-a]pyridin-6-yl)-5-(6-methylpyridin-2-yl)-1H-imidazol-2-yl)methyl)-2-ethylaniline]  10.6 nM
12. Cc1cccc(-c2[nH]c(CNc3ccc(Cl)cc3)nc2-c2ccc3ncnn3c2)n1 [Example 14, N-((4-([1,2,4]triazolo[1,5-a]pyridin-6-yl)-5-(6-methylpyridin-2-yl)-1H-imidazol-2-yl)methyl)-4-chloroaniline]  10.7 nM
13. Cc1cccc(-c2[nH]c(Cc3cccc(C#N)c3)nc2-c2ccc3ncnn3c2)n1 [Example 145, 3-((4-([1,2,4]triazolo[1,5-a]pyridin-6-yl)-5-(6-methylpyridin-2-yl)-1H-imidazol-2-yl)methyl)benzonitrile]  12.4 nM
14. CC(=O)c1cccc(NCc2nc(-c3ccc4ncnn4c3)c(-c3cccc(C)n3)[nH]2)c1 [Example 70, 1-(3-((4-([1,2,4]triazolo[1,5-a]pyridin-6-yl)-5-(6-methylpyridin-2-yl)-1H-imidazol-2-yl)methylamino)phenyl)ethanone]  12.8 nM
15. Cc1cccc(-c2[nH]c(CNc3ccccc3)nc2-c2ccc3ncnn3c2)n1 [Example 1, N-((4-([1,2,4]triazolo[1,5-a]pyridin-6-yl)-5-(6-methylpyridin-2-yl)-1H-imidazol-2-yl)methyl)aniline]  13.1 nM
16. Cc1cccc(-c2[nH]c(CNc3ccccc3C)nc2-c2ccc3ncnn3c2)n1 [Example 23, N-((4-([1,2,4]triazolo[1,5-a]pyridin-6-yl)-5-(6-methylpyridin-2-yl)-1H-imidazol-2-yl)methyl)-2-methylaniline]  13.9 nM
17. Cc1cccc(-c2[nH]c(CNc3ccccc3C(C)C)nc2-c2ccc3ncnn3c2)n1 [Example 33, N-((4-([1,2,4]triazolo[1,5-a]pyridin-6-yl)-5-(6-methylpyridin-2-yl)-1H-imidazol-2-yl)methyl)-2-isopropylaniline]  14.2 nM
18. C=Cc1ccccc1NCc1nc(-c2ccc3ncnn3c2)c(-c2cccc(C)n2)[nH]1 [Example 36, N-((4-([1,2,4]triazolo[1,5-a]pyridin-6-yl)-5-(6-methylpyridin-2-yl)-1H-imidazol-2-yl)methyl)-2-vinylaniline]  14.2 nM
19. COc1cccc(NCc2nc(-c3ccc4ncnn4c3)c(-c3cccc(C)n3)[nH]2)c1 [Example 43, N-((4-([1,2,4]triazolo[1,5-a]pyridin-6-yl)-5-(6-methylpyridin-2-yl)-1H-imidazol-2-yl)methyl)-3-methoxyaniline]  14.3 nM
20. COc1cc(NCc2nc(-c3ccc4ncnn4c3)c(-c3cccc(C)n3)[nH]2)cc(OC)c1 [Example 47, N-((4-([1,2,4]triazolo[1,5-a]pyridin-6-yl)-5-(6-methylpyridin-2-yl)-1H-imidazol-2-yl)methyl)-3,5-dimethoxyaniline]  14.4 nM
21. Cc1cccc(-c2[nH]c(CNc3cc(Cl)cc(Cl)c3)nc2-c2ccc3ncnn3c2)n1 [Example 17, N-((4-([1,2,4]triazolo[1,5-a]pyridin-6-yl)-5-(6-methylpyridin-2-yl)-1H-imidazol-2-yl)methyl)-3,5-dichloroaniline]  14.6 nM
22. Cc1cccc(-c2[nH]c(CNc3ccccc3NS(C)(=O)=O)nc2-c2ccc3ncnn3c2)n1 [Example 77, N-(2-((4-([1,2,4]triazolo[1,5-a]pyridin-6-yl)-5-(6-methylpyridin-2-yl)-1H-imidazol-2-yl)methylamino)phenyl)methanesulfonamide]  15.3 nM
23. Cc1cccc(-c2[nH]c(CNc3ccc(C)c(C)c3)nc2-c2ccc3ncnn3c2)n1 [Example 28, N-((4-([1,2,4]triazolo[1,5-a]pyridin-6-yl)-5-(6-methylpyridin-2-yl)-1H-imidazol-2-yl)methyl)-3,4-dimethylaniline]  17.4 nM
24. Cc1cccc(-c2[nH]c(Cc3ccccc3)nc2-c2ccc3ncnn3c2)n1 [Example 143, 6-(2-benzyl-5-(6-methylpyridin-2-yl)-1H-imidazol-4-yl)-[1,2,4]triazolo[1,5-a]pyridine]  19.8 nM
25. Cc1cccc(-c2[nH]c(CNc3cccc(C#N)c3C#N)nc2-c2ccc3ncnn3c2)n1 [Example 64, 3-((4-([1,2,4]triazolo[1,5-a]pyridin-6-yl)-5-(6-methylpyridin-2-yl)-1H-imidazol-2-yl)methylamino)phthalonitrile]  20.6 nM
26. Cc1cccc(-c2[nH]c(CSc3ccccc3)nc2-c2ccc3ncnn3c2)n1 [Example 152, 6-(5-(6-methylpyridin-2-yl)-2-(phenylthiomethyl)-1H-imidazol-4-yl)-[1,2,4]triazolo[1,5-a]pyridine]  20.7 nM
27. Cc1cccc(-c2[nH]c(COc3cccc(C#N)c3)nc2-c2ccc3ncnn3c2)n1 [Example 150, 3-((4-([1,2,4]triazolo[1,5-a]pyridin-6-yl)-5-(6-methylpyridin-2-yl)-1H-imidazol-2-yl)methoxy)benzonitrile]  23.9 nM
28. COCc1ccccc1NCc1nc(-c2ccc3ncnn3c2)c(-c2cccc(C)n2)[nH]1 [Example 48, N-((4-([1,2,4]triazolo[1,5-a]pyridin-6-yl)-5-(6-methylpyridin-2-yl)-1H-imidazol-2-yl)methyl)-2-(methoxymethyl)aniline]  24.1 nM
29. Cc1cccc(-c2[nH]c(CNc3ccc(CC#N)cc3)nc2-c2ccc3ncnn3c2)n1 [Example 69, 2-(4-((4-([1,2,4]triazolo[1,5-a]pyridin-6-yl)-5-(6-methylpyridin-2-yl)-1H-imidazol-2-yl)methylamino)phenyl)acetonitrile]  24.5 nM
30. Cc1cccc(-c2[nH]c(Cc3ccccc3F)nc2-c2ccc3ncnn3c2)n1 [Example 144, 6-(2-(2-fluorobenzyl)-5-(6-methylpyridin-2-yl)-1H-imidazol-4-yl)-[1,2,4]triazolo[1,5-a]pyridine]  25.1 nM
31. Cc1cccc(-c2[nH]c(COc3ccccc3F)nc2-c2ccc3ncnn3c2)n1 [Example 149, 6-(2-((2-fluorophenoxy)methyl)-5-(6-methylpyridin-2-yl)-1H-imidazol-4-yl)-[1,2,4]triazolo[1,5-a]pyridine]  25.4 nM
32. Cc1cccc(-c2[nH]c(CN(C)c3ccccc3F)nc2-c2ccc3ncnn3c2)n1 [Example 140, N-((4-([1,2,4]triazolo[1,5-a]pyridin-6-yl)-5-(6-methylpyridin-2-yl)-1H-imidazol-2-yl)methyl)-2-fluoro-N-methylaniline]  49.8 nM
33. COCc1ccc(NCc2nc(-c3ccc4ncnn4c3)c(-c3cccc(C)n3)[nH]2)cc1 [Example 50, N-((4-([1,2,4]triazolo[1,5-a]pyridin-6-yl)-5-(6-methylpyridin-2-yl)-1H-imidazol-2-yl)methyl)-4-(methoxymethyl)aniline]  50.7 nM
34. Cc1cccc(-c2[nH]c(CNc3ccc(C(N)=O)cc3)nc2-c2ccc3ncnn3c2)n1 [Example 67, 4-((4-([1,2,4]triazolo[1,5-a]pyridin-6-yl)-5-(6-methylpyridin-2-yl)-1H-imidazol-2-yl)methylamino)benzamide]  54.6 nM
35. Cc1cccc(-c2[nH]c(CN(C)c3cccc(C#N)c3)nc2-c2ccc3ncnn3c2)n1 [Example 141]  118 nM
